Reference: patent US20210382058A1, “PATIENT SELECTION FOR TREATMENT OF MYC POSITIVE CANCERS WITH INDENOISOQUINOLINES” (Purdue Research Foundation, priority 2020, published 2021)
Read-outs that look alike come from different tables or passages of the source.

Key:
human topoisomerase I = molecular target: T1, human topoisomerase I (Homo sapiens, UniProt P11387); conditions: relative topoisomerase I inhibition levels, previously determined, six levels (0 - 5, +++++ = 5); cited from earlier work
T1 sequence (P11387 1-765): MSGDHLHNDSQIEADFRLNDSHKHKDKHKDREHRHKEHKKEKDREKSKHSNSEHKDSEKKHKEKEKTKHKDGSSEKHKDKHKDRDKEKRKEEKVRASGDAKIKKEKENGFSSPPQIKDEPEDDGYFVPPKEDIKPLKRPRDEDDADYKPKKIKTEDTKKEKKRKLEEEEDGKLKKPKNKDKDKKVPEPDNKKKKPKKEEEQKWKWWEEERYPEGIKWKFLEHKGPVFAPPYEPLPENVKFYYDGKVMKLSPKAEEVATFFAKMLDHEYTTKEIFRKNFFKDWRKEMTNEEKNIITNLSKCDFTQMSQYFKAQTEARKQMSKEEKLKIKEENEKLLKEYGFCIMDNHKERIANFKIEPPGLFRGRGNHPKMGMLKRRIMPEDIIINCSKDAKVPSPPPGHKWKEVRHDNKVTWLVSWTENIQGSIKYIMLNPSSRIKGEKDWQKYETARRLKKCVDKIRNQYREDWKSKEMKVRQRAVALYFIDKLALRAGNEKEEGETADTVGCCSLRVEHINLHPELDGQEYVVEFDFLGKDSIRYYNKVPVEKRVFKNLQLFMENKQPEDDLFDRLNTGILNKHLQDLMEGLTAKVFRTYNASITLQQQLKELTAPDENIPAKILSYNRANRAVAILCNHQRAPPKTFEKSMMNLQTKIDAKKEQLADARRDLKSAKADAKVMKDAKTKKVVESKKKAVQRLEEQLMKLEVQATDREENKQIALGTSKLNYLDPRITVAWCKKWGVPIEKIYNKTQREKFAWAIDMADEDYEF

[1] = tested on: MYC protein expression in MCF-7 breast cancer cells; assay: Western blotting of MYC protein level in MCF-7 cells; assay type: cell-based, human
In short: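 Immunoblotting with ECL detection quantified MYC, with GAPDH (1:2000) as reference and anti-MYC at 1:1000.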

NCI-60 cancer cell lines = assay: NCI-60 cancer cell line drug screen (GI50, MGM); assay type: cell-based, human; conditions: for GI50: read-out: Antiproliferative Activities [GI50 (μM)]
Experimental: Cancer cells were incubated with the test compounds at five concentrations ranging from 100 μM to 10 nM for 48 h. […] The approximate average of GI50 values across the entire panel of NCI-60 cancer cell lines for each compound was recorded as the MGM value.

## COc1cnc2c(c1)C(=O)c1c-2n(CCCNC(C)C)c(=O)c2cc(F)ccc12 [Compound 5]
Human topoisomerase I
  Top1 Inhibiton: ++ (medium inhibition, ++, MYC expression inhibited at 2.0 μM, or no clear dose-dependent MYC inhibition)
[1]; Homo sapiens, MCF7, western blotting, MCF-7 cells, 0.5, 1, 2, and 4 μM, 24 hours, read-out: MYC Inhibition
  minimal effective concentration: 0.5 to 1 µM
[1]; MCF-7, 0.5, 1, 2, and 4 μM, 24 h
  MYC-inhibitory effect (MYC protein, western blot): clear MYC-inhibitory effect
NCI-60 cancer cell lines; Homo sapiens, 786-0, Renal Cancer, 786-0
  GI50: 0.12 µM
NCI-60 cancer cell lines; Homo sapiens, A498, Renal Cancer, A498
  GI50: 0.2 µM
NCI-60 cancer cell lines; Homo sapiens, A549, Non-Small Cell Lung Cancer, A549/ATCC
  GI50: 0.07 µM
NCI-60 cancer cell lines; Homo sapiens, ACHN, Renal Cancer, ACHN
  GI50: 0.06 µM
NCI-60 cancer cell lines; Homo sapiens, BT-549, Breast Cancer, BT-549
  GI50: 0.66 µM
NCI-60 cancer cell lines; Homo sapiens, CCRF-CEM, Leukemia, CCRF-CEM
  GI50: 0.11 µM
NCI-60 cancer cell lines; Homo sapiens, COLO 205, Colon Cancer, COLO 205
  GI50: 0.09 µM
NCI-60 cancer cell lines; Homo sapiens, DU-145, Prostate Cancer, DU-145
  GI50: 0.21 µM
NCI-60 cancer cell lines; Homo sapiens, EKVX, Non-Small Cell Lung Cancer, EKVX
  GI50: 0.3 µM
NCI-60 cancer cell lines; Homo sapiens, HCC 2998, Colon Cancer, HCC-2998
  GI50: 0.4 µM
NCI-60 cancer cell lines; Homo sapiens, HCT-15, Colon Cancer, HCT-15
  GI50: 0.16 µM
NCI-60 cancer cell lines; Homo sapiens, HCT-116, Colon Cancer, HCT-116
  GI50: 0.09 µM
NCI-60 cancer cell lines; Homo sapiens, HL-60, Leukemia, HL-60(TB)
  GI50: 0.16 µM
NCI-60 cancer cell lines; Homo sapiens, HOP-62, Non-Small Cell Lung Cancer, HOP-62
  GI50: 0.11 µM
NCI-60 cancer cell lines; Homo sapiens, HOP-92, Non-Small Cell Lung Cancer, HOP-92
  GI50: 0.28 µM
NCI-60 cancer cell lines; Homo sapiens, HT-29, Colon Cancer, HT29
  GI50: 0.07 µM
NCI-60 cancer cell lines; Homo sapiens, Hs-578T, Breast Cancer, HS 578T
  GI50: 0.75 µM
NCI-60 cancer cell lines; Homo sapiens, IGROV-1, Ovarian Cancer, IGROV1
  GI50: 0.21 µM
NCI-60 cancer cell lines; Homo sapiens, K562, Leukemia, K-562
  GI50: 0.13 µM
NCI-60 cancer cell lines; Homo sapiens, KM12, Colon Cancer, KM12
  GI50: 0.17 µM
NCI-60 cancer cell lines; Homo sapiens, LOX IMVI, Melanoma, LOX IMVI
  GI50: 0.11 µM
NCI-60 cancer cell lines; Homo sapiens, Leukemia, SR
  GI50: 0.08 µM
NCI-60 cancer cell lines; Homo sapiens, MCF7, Breast Cancer, MCF7
  GI50: 0.03 µM
NCI-60 cancer cell lines; Homo sapiens, MDA-MB-231, Breast Cancer, MDA-MB-231/ATCC
  GI50: 0.4 µM
NCI-60 cancer cell lines; Homo sapiens, MDA-MB-435, Melanoma, MDA-MB-435
  GI50: 0.31 µM
NCI-60 cancer cell lines; Homo sapiens, MDA-MB-468, Breast Cancer, MDA-MB-468
  GI50: 0.23 µM
NCI-60 cancer cell lines; Homo sapiens, MOLT-4, Leukemia, MOLT-4
  GI50: 0.04 µM
NCI-60 cancer cell lines; Homo sapiens, Malme-3M, Melanoma, MALME-3M
  GI50: 0.2 µM
NCI-60 cancer cell lines; Homo sapiens, Melanoma, M14
  GI50: 0.23 µM
NCI-60 cancer cell lines; Homo sapiens, NCI-H23, Non-Small Cell Lung Cancer, NCI-H23
  GI50: 0.18 µM
NCI-60 cancer cell lines; Homo sapiens, NCI-H226, Non-Small Cell Lung Cancer, NCI-H226
  GI50: 0.15 µM
NCI-60 cancer cell lines; Homo sapiens, NCI-H322M, Non-Small Cell Lung Cancer, NCI-H322M
  GI50: 0.32 µM
NCI-60 cancer cell lines; Homo sapiens, NCI-H460, Non-Small Cell Lung Cancer, NCI-H460
  GI50: 0.04 µM
NCI-60 cancer cell lines; Homo sapiens, NCI-H522, Non-Small Cell Lung Cancer, NCI-H522
  GI50: 0.04 µM
NCI-60 cancer cell lines; Homo sapiens, OVCAR-3, Ovarian Cancer, OVCAR-3
  GI50: 0.19 µM
NCI-60 cancer cell lines; Homo sapiens, OVCAR-4, Ovarian Cancer, OVCAR-4
  GI50: 0.3 µM
NCI-60 cancer cell lines; Homo sapiens, OVCAR-5, Ovarian Cancer, OVCAR-5
  GI50: 0.28 µM
NCI-60 cancer cell lines; Homo sapiens, OVCAR-8, Ovarian Cancer, OVCAR-8
  GI50: 0.14 µM
NCI-60 cancer cell lines; Homo sapiens, Ovarian Cancer, NCl/ADR-RES
  GI50: 0.23 µM
NCI-60 cancer cell lines; Homo sapiens, Prostate Cancer, PC-3
  GI50: 0.28 µM
NCI-60 cancer cell lines; Homo sapiens, RPMI-8226, Leukemia, RPMI-8226
  GI50: 0.15 µM
NCI-60 cancer cell lines; Homo sapiens, RXF 393, Renal Cancer, RXF 393
  GI50: 0.23 µM
NCI-60 cancer cell lines; Homo sapiens, Renal Cancer, U0-31
  GI50: 0.08 µM
NCI-60 cancer cell lines; Homo sapiens, SF-268, CNS Cancer, SF-268
  GI50: 0.21 µM
NCI-60 cancer cell lines; Homo sapiens, SF-295, CNS Cancer, SF-295
  GI50: 0.09 µM
NCI-60 cancer cell lines; Homo sapiens, SF-539, CNS Cancer, SF-539
  GI50: 0.25 µM
NCI-60 cancer cell lines; Homo sapiens, SK-MEL-2, Melanoma, SK-MEL-2
  GI50: 0.51 µM
NCI-60 cancer cell lines; Homo sapiens, SK-MEL-5, Melanoma, SK-MEL-5
  GI50: 0.16 µM
NCI-60 cancer cell lines; Homo sapiens, SK-MEL-28, Melanoma, SK-MEL-28
  GI50: 0.94 µM
NCI-60 cancer cell lines; Homo sapiens, SK-OV-3, Ovarian Cancer, SK-OV-3
  GI50: 0.22 µM
NCI-60 cancer cell lines; Homo sapiens, SN12C, Renal Cancer, SN12C
  GI50: 0.16 µM
NCI-60 cancer cell lines; Homo sapiens, SNB-19, CNS Cancer, SNB-19
  GI50: 0.18 µM
NCI-60 cancer cell lines; Homo sapiens, SNB-75, CNS Cancer, SNB-75
  GI50: 0.22 µM
NCI-60 cancer cell lines; Homo sapiens, SW-620, Colon Cancer, SW-620
  GI50: 0.12 µM
NCI-60 cancer cell lines; Homo sapiens, T47D, Breast Cancer, T-47D
  GI50: 0.08 µM
NCI-60 cancer cell lines; Homo sapiens, TK-10, Renal Cancer, TK-10
  GI50: 0.18 µM
NCI-60 cancer cell lines; Homo sapiens, U-251, CNS Cancer, U251
  GI50: 0.08 µM
NCI-60 cancer cell lines; Homo sapiens, UACC-62, Melanoma, UACC-62
  GI50: 0.27 µM
NCI-60 cancer cell lines; Homo sapiens, UACC-257, Melanoma, UACC-257
  GI50: 0.47 µM
NCI-60 cancer cell lines; Homo sapiens, average of GI50 values across the entire panel of NCI-60 cancer cell lines
  mean GI50 across NCI-60 panel (MGM): 165 nM
NCI-60 cancer cell lines; NCI-60 panel
  anticancer activity (GI50 profile) in words: more potent anticancer activities compared to compounds 4 and 20
